Data set [1] has as its system progranulin mRNA expression in primary cortical neurons. Briefly: Progranulin mRNA expression by quantitative PCR in primary cortical neurons. The data set is classed as cell-based, rat. The settings on record: for increase in progranulin mRNA expression: after 8 h of treatment, primary cortical neurons. The procedure:
(§1) Primary cortical (Cx) and hippocampal (Hp) neurons are derived from E17 Sprague-Dawley rats and cultured in 24-well plates (325,000 cells/well for Cx and 250,000 cells/well for Hp). Half of the medium is replaced with fresh medium every four days. On day 10 of culture, neurons are incubated in the presence of different concentrations (0.1-3 μM) of a compound of the invention, e.g., Compound 1, for 2-24 h. At specific time points, conditioned medium is removed and frozen until needed for ELISA assay. Cells are washed with PBS and RNA is extracted with Qiazol reagent using the RNeasy kit from Qiagen (Valencia, Calif.) following manufacturer instructions. RNA is then transcribed into cDNA using the high capacity cDNA reverse transcription kit from Applied Biosystems (Carlsbad, Calif.) according to kit instructions.
Relative progranulin gene expression is measured by quantitative PCR using rat-specific probes (Applied Biosystems, Carlsbad, Calif.) for the granulin gene and for Rp113a as a reference gene. The ΔΔCt method is used for calculations of relative gene expression levels (Pfaffl, Nucleic Acids Res., 2001). This method compares expression of the different genes (reference and gene of interest) in cells treated with vehicle versus the compound of the invention. Moreover, this measurement and analysis of mRNA levels is expected to be predictive of the expression of progranulin protein levels.
Neuronal granulin gene expression was measured at different time points as described in Example 1 (1, 4, 6, 8, 10, 18 and 24 h) following treatment with (Z)-4-(dibenzo[b,f][1,4]oxazepin-11-yl)-N-hydroxybenzamide

Data set [2] in a line: Brain penetration (brain:plasma ratio of drug levels) after acute and repeated dosing. The data set is classed as in vivo. The settings on record: rodents.
A short description of data set [3]: Maximum Tolerated Dose in humans, oral dosing. The following applies: healthy volunteers. The format is in vivo.
Data set [4] relates to progranulin mRNA in lymphoblasts from progranulin mutation carriers. Briefly: Progranulin mRNA expression in FTLD patient lymphoblast cell lines (qPCR). The format is cell-based, human. The following applies: 3 μM, after 24 h. The procedure: (§2) Immortalized (Epstein-Barr-Virus) B-lymphocytes isolated from the peripheral blood of patients subject harboring different mutations in the granulin gene were used to measure effects of compounds on progranulin mRNA and protein expression. The cell lines were maintained in complete growth medium (cGM), comprised of RPMI 1640 medium supplemented with 15% heat-inactivated FBS, 4 mM L-Glutamine and 1% Penicillin/Streptomycin. Cells were seeded into 24-well tissue-culture plates at a density of 400,000-500,000 cells per well in cGM. Following an overnight incubation, the cells were treated with 0.3 or 3 μM of Compound 1. Following an 8- or 24-hour exposure to Compound 1, cells were collected, spun, and the resulting cell pellets underwent a single rinse in chilled PBS.
(§3) For analysis of progranulin mRNA expression, samples were analyzed as described in Example 1, with the exception that probes specific for the human granulin gene (Applied Biosystems, Carlsbad, Calif.) were used.
A general note: In qPCR the cycle at which signal appears reflects the starting amount.

Data set [5] deals with progranulin protein in lymphoblasts from progranulin mutation carriers. In words: Progranulin protein expression in FTLD patient lymphoblast cell lines (ELISA). The data set is classed as cell-based, human. The following applies: 3 μM, after 24 h. The procedure: as §2
(§4) For analysis of progranulin protein expression, cell pellets were re-suspended in 150 μl of chilled RIPA Lysis Buffer supplemented with a protease-inhibitor cocktail and incubated for 15-20 minutes at 4° C. to allow for cell lysis. Total protein concentrations of each sample were determined by performing a BCA protein assay (Pierce). Quantitative determination of Progranulin protein levels was performed by ELISA (AdipoGen, Incheon, South Korea), using a 1:20 dilution of the cell lysate following the manufacturer protocol. […]
On the technique in general: ELISA stands for enzyme-linked immunosorbent assay.

Data set [6] has as its system progranulin mRNA in primary fibroblasts from progranulin mutation carriers. Briefly: Progranulin mRNA expression in primary fibroblasts from progranulin mutation carriers (qPCR). The data set is classed as cell-based, human. The following applies: 3 μM, after 8 h. The procedure: as §3
(§5) Primary fibroblasts from patients harboring different mutations in the progranulin gene were isolated and maintained in complete growth medium (cGM), comprised of D-MEM supplemented with 10% heat-inactivated FBS and 1% Penicillin/Streptomycin. The fibroblasts were seeded into 6-well tissue-culture plates at a density of 150,000-190,000 cells per well in cGM. Following overnight incubation, the cells were treated with 0.3 or 3 μM of Compound 1. Analysis of progranulin mRNA expression was performed as described in Example 4. Analysis of progranulin protein was performed as described in Example 4.

For data set [7], the system named is progranulin protein in primary fibroblasts from progranulin mutation carriers. In words: Progranulin protein expression in primary fibroblasts from progranulin mutation carriers (ELISA). The format is cell-based, human. The settings on record: 0.3 μM, after 8 h. The procedure:
For analysis of progranulin protein expression, cell pellets were re-suspended in 150 μl of chilled RIPA Lysis Buffer supplemented with a protease-inhibitor cocktail and incubated for 15-20 minutes at 4° C. to allow for cell lysis. Total protein concentrations of each sample were determined by performing a BCA protein assay (Pierce). Quantitative determination of Progranulin protein levels was performed by ELISA (AdipoGen, Incheon, South Korea), using a 1:20 dilution of the cell lysate following the manufacturer protocol. Progranulin levels were expressed relative to protein amount, and compound treatment groups were expressed relative to the vehicle-treated group.
as §5

Data set [8] deals with progranulin protein in immortalized lymphoblasts from a normal human subject. Briefly: Progranulin protein by western blot in immortalized lymphoblasts from a normal human subject. The following applies: 24 h. The data set is classed as cell-based. The procedure: Cellular protein from immortalized (Epstein-Barr-Virus) B-lymphocytes isolated from the peripheral blood of normal human volunteers was isolated as described in Example 4. Cells were treated with Compound 1 for 24 h. For Western Blotting analysis of progranulin protein, 50 μg of total cellular protein were separated on a 4-12% Bis-Tris Poly-Acrylamide gel using MOPS Running Buffer, transferred to a PVDF membrane and probed with a R & D Systems (Minneapolis, Minn.) mouse monoclonal anti-human progranulin antibody, followed by an IRDye secondary antibody (Rockland). Detection was performed using the Li-COR Odyssey imaging system. Progranulin signals (Integrated Intensity after background subtraction) were quantified using Li-COR Odyssey software.

Data set [9] deals with progranulin mRNA in cerebral cortex. In words: Progranulin mRNA expression in mouse cerebral cortex (qPCR). The format is in vivo, C57BL/6 mice. The settings on record: normal mice, 100 mg/kg oral, 8 h after acute dosing. The procedure: (§6) C57BL/6 mice (n=6/group; Charles River) were treated with either vehicle (1% carboxymethylcellulose-medium viscosity/0.5% Tween 80 (99.5:0.5 v/v)) or with an oral dose of 100 mg/kg of Compound 1 prepared in the same vehicle. Animals were sacrificed at specific time points and the brain extracted. Left and right hemisphere of the cerebral cortex were separated and used for RNA and protein extractions.
RNA was extracted with Qiazol reagent using the RNeasy lipid-rich tissue kit from Qiagen (Valencia, Calif.) following manufacturer instructions. RNA was then transcribed into cDNA using the high capacity cDNA reverse transcription kit from Applied Biosystems (Carlsbad, Calif.), according to kit instructions. Relative progranulin gene expression was measured by quantitative PCR using mouse-specific probes (Applied Biosystems, Carlsbad, Calif.) for the granulin gene, and for Rp113a as a reference gene. The ΔΔCt method was used for calculations of relative gene expression levels (Pfaffl, Nucleic Acids Res., 2001). This method compares expression of the different genes (reference and gene of interest) in animals treated with vehicle versus the compound of the invention (FIG. 5A).

Data set [10] deals with progranulin protein in cerebral cortex. In words: Progranulin protein levels in mouse cerebral cortex (ELISA). The data set is classed as in vivo, C57BL/6 mice. The following applies: normal mice, 100 mg/kg oral, 8 h after acute dosing. The procedure: as §6
Proteins were extracted in 50 mM Tris pH 7.4/150 mM NaCl/0.1% SDS with protease inhibitors using an extraction ratio of 200 mg of brain tissue per ml buffer. Sample was spun for 20 minutes at 16,200 g and supernatant collected. Progranulin levels were measured using a 1:4 dilution of the tissue extract (FIG. 5B) with a mouse ELISA kit from Adipogen (Incheon, South Korea) according to the manufacturer instructions. Progranulin levels were normalized to total protein concentration as measured by the BCA method (Pierce).

Data set [11] concerns progranulin protein in CSF and plasma. Briefly: Progranulin levels in rat CSF and plasma (ELISA). The format is in vivo, Sprague Dawley rats. The following applies: normal rats, 100 mg/kg intra-peritoneally. The procedure:
Sprague Dawley rats (n=12/group; Charles River) were dosed intra-peritoneally with either vehicle (Solutol HS 15/Ethanol (3:2 v/v)) or with a dose of 100 mg/kg of Compound 1 prepared in the same vehicle. EDTA-Plasma and CSF were collected after 4 and 8 hours of treatment, and progranulin levels were assessed by ELISA (Adipogen, Incheon, South Korea) using a 1:2 dilution for CSF (FIG. 6A) and a 1:25 dilution for plasma (FIG. 6B).

Data set [12] has as its system progranulin protein in rat primary cortical neurons. In words: Progranulin protein expression in rat primary cortical neurons (ELISA). The following applies: 3 μM, after 8 h. The data set is classed as cell-based. The procedure:
as §1, §4

Data set [13] concerns acetylation of histones in the brain. Briefly: Acetylation of histones in the brain of mice, required free plasma exposure. The format is in vivo.
The conditions of data set [14]: cancer patients, oral; cited from earlier work.

SMILES strings stand for the structures. Like-named read-outs stand apart in the source and are kept apart here. Where only a bound is given, the exact number is not on record here.

As to `O=C(NO)c1ccc(C2=Nc3ccccc3Oc3ccccc32)cc1` [Compound 1, (Z)-4-(dibenzo[b,f][1,4]oxazepin-11-yl)-N-hydroxybenzamide], the “increase in progranulin mRNA expression” value in data set [1] (0.3 μM) was approximately 2 fold; in data set [1] (3 μM), approximately 5 fold. For the same molecule, the “increase in progranulin gene expression” value in data set [1] (lowest dose (0.1 μM), as soon as 4 h after treatment, sustained for 24 h) was approximately 40%. Also, the Kp in data set [2] (acute and repeated dosing, read-out: brain:plasma (b:p) ratio for drug levels) was approximately 5. Besides, in data set [3], the “Maximum Tolerated Dose (MTD), not observed at highest dose used” value is listed as more than 400 mg. In addition, the “increase in progranulin mRNA” value in [4] was 2.4 fold; in data set [6], 1.3 fold. The “increase in progranulin protein expression” value in [5] was 1.5 fold; in [7], 1.1 fold; in data set [12] it was 1.77 fold. The entries for the “increase in progranulin protein (western blot)” value in data set [8] (0.3 μM) and in data set [8] (3 μM) were 1.3 fold and 1.6 fold, respectively. For the same molecule, in data set [9], the “increase in progranulin mRNA in brain (cerebral cortex)” value is 1.45 fold. Further, the “increase in progranulin protein levels in brain (cerebral cortex)” value in data set [10] is “about 1.16 fold”. For the same molecule, the “increase in CSF progranulin protein” value in data set [11] (4 h after acute dosing) is recorded as “about 1.9 fold”. Further, the “increase in plasma progranulin protein levels” value in [11] (concomitantly (4 h after acute dosing)) is recorded as “about 1.4 fold”.

Consider `O=C(CCCCCCC(=O)Nc1ccccc1)NO` [SAHA], for which the Kp in data set [2] (acute dosing experiments, read-out: brain:plasma (b:p) ratio) was approximately 0.1. Further, in [13], the “excess of plasma protein unbound ('free') drug required to produce acetylation of histones in the brain, compared to Compound 1” value is approximately 30 fold. Further, in [14], the “Maximum Tolerated Dose (MTD)” value was 400 mg.
